# Read-outs that look alike come from different tables or passages of the source. Positions of bridges follow the written chain, without caps; N, C: chain ends. Non-standard residues stand in square brackets, D forms with d. Residues, ends and D or L forms follow the SMILES beside them. *: point of attachment. NMePhe(3-Cl) = CN[C@@H](Cc1cccc(Cl)c1)C(=O)O; NMeF = CN[C@@H](Cc1ccccc1)C(=O)O; NMeL = CN[C@@H](CC(C)C)C(=O)O; NMeA = CN[C@@H](C)C(=O)O; Piperidide = C1CCN(*)CC1; Sar = CNCC(=O)O
# Tests used:
# [1] = PAMPA (parallel artificial membrane permeability assay); format: in vitro ADME; conditions: PAMPA
# In short: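 Artificial membrane was 10% (w/v) egg lecithin plus 0.5% (w/v) cholesterol in dodecane on a PVDF filter. A 10 mM DMSO stock was added at 0.5% (v/v) to donor buffer (50 mM MOPSO, pH 6.5, 5.0% glycocholic acid). After 18 h at 37 °C, LC/MS or LC/UV gave donor and acceptor levels for Pe.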
# [2] = Metabolic stability in human hepatic microsome; format: in vitro ADME; conditions: microsomes
# [3] = membrane permeation rate (Pe), 50 mM MOPSO buffer pH 6.5 with 5.0% glycocholic acid, 37° C., 18 hours, read-out: iPAMPA Pe
# [4] = pH 7.4, human hepatic microsome, NADPH(+), read-out: CL NADPH(+)
smiles,measurement,setting,value
CC[C@H](C)[C@H](NC(=O)[C@H](C)N(C)C(=O)[C@H](Cc1ccccc1)N(C)C(=O)[C@H](CC(C)C)N(C)C(=O)[C@@H]1CC(=O)N[C@@H](C)C(=O)N(C)[C@@H](Cc2ccccc2)C(=O)N(C)[C@@H](CC(C)C)C(=O)N[C@@H]([C@@H](C)O)C(=O)N(C)CC(=O)N(C)[C@@H](Cc2ccccc2)C(=O)N1)C(=O)N1CCCCC1 [DP-918] (A[NMeF][NMeL]T[Sar][NMeF]D[NMeL][NMeF][NMeA]I-Piperidide; lactam N-7),"Papp at 18 hours, 50 µM",[1]; [3],5.3 ×10⁻⁶ cm/s
same,microsomal CLint at 1 uM,[2]; [4],55 µL/min/mg
CC[C@H](C)[C@H](NC(=O)[C@H](CC(C)C)NC(=O)[C@H](CC(C)C)N(C)C(=O)CN(C)C(=O)[C@@H]1CC(=O)N[C@H](C)C(=O)N[C@@H]([C@@H](C)O)C(=O)N(C)[C@@H](CC(C)C)C(=O)N[C@@H]([C@@H](C)CC)C(=O)N(C)[C@@H](CC(C)C)C(=O)N[C@@H](CC(C)C)C(=O)N1)C(=O)N1CCCCC1 [DP-919] ([dA]T[NMeL]I[NMeL]LD[Sar][NMeL]LI-Piperidide; lactam N-7),"Papp at 18 hours, 50 µM",[1]; [3],27 ×10⁻⁶ cm/s
same,microsomal CLint at 1 uM,[2]; [4],128 µL/min/mg
CC[C@H](C)[C@H](NC(=O)[C@H](Cc1ccccc1)N(C)C(=O)[C@H](CC(C)C)N(C)C(=O)[C@@H](NC(=O)[C@@H]1CC(=O)N(C)[C@@H](C)C(=O)N[C@@H]([C@@H](C)CC)C(=O)N(C)[C@@H](CC(C)C)C(=O)N[C@@H]([C@@H](C)O)C(=O)N[C@@H](CC(C)C)C(=O)N(C)[C@@H](Cc2cccc(Cl)c2)C(=O)N1)C(C)C)C(=O)N1CCCCC1 [DP-920] ([NMeA]I[NMeL]TL[NMePhe(3-Cl)]DV[NMeL][NMeF]I-Piperidide; lactam N-7),"Papp at 18 hours, 50 µM",[1]; [3],0.22 ×10⁻⁶ cm/s
same,microsomal CLint at 1 uM,[2]; [4],27 µL/min/mg
CC[C@H](C)[C@H](NC(=O)[C@H](CC(C)C)N(C)C(=O)[C@H](Cc1ccccc1)NC(=O)[C@H](Cc1ccccc1)N(C)C(=O)[C@@H]1CC(=O)N(C)[C@@H](C)C(=O)N[C@@H](C(C)C)C(=O)N[C@@H](CC(C)C)C(=O)N(C)[C@@H](Cc2ccccc2)C(=O)N[C@@H](CC(C)C)C(=O)N[C@@H]([C@@H](C)O)C(=O)N1)C(=O)N1CCCCC1 [DP-921] ([NMeA]VL[NMeF]LTD[NMeF]F[NMeL]I-Piperidide; lactam N-7),"Papp at 18 hours, 50 µM",[1]; [3],0.34 ×10⁻⁶ cm/s
same,microsomal CLint at 1 uM,[2]; [4],88 µL/min/mg
CC[C@H](C)[C@H](NC(=O)[C@@H](NC(=O)[C@H](Cc1ccccc1)NC(=O)[C@H](CC(C)C)N(C)C(=O)[C@@H](NC(=O)[C@@H]1CC(=O)N[C@@H](C)C(=O)N(C)[C@@H](C)C(=O)N(C)[C@@H](Cc2ccccc2)C(=O)N[C@@H]([C@@H](C)O)C(=O)N(C)[C@@H](Cc2ccccc2)C(=O)N[C@@H](CC(C)C)C(=O)N2CCC[C@H]2C(=O)N1)[C@@H](C)CC)C(C)C)C(=O)N1CCCCC1 [DP-922] (A[NMeA][NMeF]T[NMeF]LPDI[NMeL]FVI-Piperidide; lactam N-8),"Papp at 18 hours, 50 µM",[1]; pH 6.5,0.12 ×10⁻⁶ cm/s
same,microsomal CLint at 1 uM,"[2]; human, pH 7.4, CL NADPH(+)",70 µL/min/mg
CC[C@H](C)[C@H](NC(=O)[C@H](Cc1cccc(Cl)c1)N(C)C(=O)[C@H](CC(C)C)NC(=O)[C@H](C)N(C)C(=O)[C@H](CC(C)C)N(C)C(=O)[C@@H]1CC(=O)N[C@@H](Cc2ccccc2)C(=O)N(C)[C@@H](Cc2ccccc2)C(=O)N2CCC[C@H]2C(=O)N[C@@H](CC(C)C)C(=O)N(C)[C@@H](Cc2cccc(Cl)c2)C(=O)N[C@@H]([C@@H](C)O)C(=O)N[C@@H](CC(C)C)C(=O)N1)C(=O)N1CCCCC1 [DP-923] (F[NMeF]PL[NMePhe(3-Cl)]TLD[NMeL][NMeA]L[NMePhe(3-Cl)]I-Piperidide; lactam N-8),"Papp at 18 hours, 50 µM",[1]; pH 6.5,0.1 ×10⁻⁶ cm/s
same,microsomal CLint at 1 uM,"[2]; human, pH 7.4, CL NADPH(+)",8 µL/min/mg
CC[C@H](C)[C@H](NC(=O)[C@H](CC(C)C)N(C)C(=O)CN(C)C(=O)[C@H](C)N(C)C(=O)[C@H](Cc1ccccc1)N(C)C(=O)[C@@H]1CC(=O)N[C@H](C(C)C)C(=O)N[C@@H](C(C)C)C(=O)N[C@@H]([C@@H](C)O)C(=O)N[C@@H](CC(C)C)C(=O)N[C@@H](Cc2ccccc2)C(=O)N(C)[C@@H](CC(C)C)C(=O)N(C)[C@@H](Cc2cccc(Cl)c2)C(=O)N1)C(=O)N1CCCCC1 [DP-924] ([dV]VTLF[NMeL][NMePhe(3-Cl)]D[NMeF][NMeA][Sar][NMeL]I-Piperidide; lactam N-8),"Papp at 18 hours, 50 µM",[1]; [3],0.1 ×10⁻⁶ cm/s
same,microsomal CLint at 1 uM,[2]; [4],19 µL/min/mg
CC[C@H](C)[C@H](NC(=O)[C@H](CC(C)C)NC(=O)[C@@H]1CCCN1C(=O)[C@H](CC(C)C)NC(=O)[C@H](CC(C)C)N(C)C(=O)[C@@H]1CC(=O)N[C@@H](Cc2ccccc2)C(=O)N[C@@H](CC(C)C)C(=O)N(C)[C@@H](CC(C)C)C(=O)N[C@@H]([C@@H](C)O)C(=O)N(C)[C@@H](Cc2cccc(Cl)c2)C(=O)N(C)[C@@H](C)C(=O)N(C)[C@@H](CC(C)C)C(=O)N1)C(=O)N1CCCCC1 [DP-925] (FL[NMeL]T[NMePhe(3-Cl)][NMeA][NMeL]D[NMeL]LPLI-Piperidide; lactam N-8),"Papp at 18 hours, 50 µM",[1]; [3],0.1 ×10⁻⁶ cm/s
same,microsomal CLint at 1 uM,[2]; [4],2 µL/min/mg

# — patent US9409952B2, “Peptide-compound cyclization method” (Chugai Seiyaku Kabushiki Kaisha, priority 2011, dated 2016)
